{"source": "patent US5512562A", "about": "“Tricyclic 2,3,4,5-tetrahydro-1H-3-benzapines” (Novo Nordisk A/S, priority 1993, dated 1996)", "molecular_target": "T1, dopamine D1 receptor (Rattus norvegicus, UniProt P18901)", "T1 construct": "from tissue; host or cells: rat striatum homogenate", "T1 sequence (P18901 whole entry)": "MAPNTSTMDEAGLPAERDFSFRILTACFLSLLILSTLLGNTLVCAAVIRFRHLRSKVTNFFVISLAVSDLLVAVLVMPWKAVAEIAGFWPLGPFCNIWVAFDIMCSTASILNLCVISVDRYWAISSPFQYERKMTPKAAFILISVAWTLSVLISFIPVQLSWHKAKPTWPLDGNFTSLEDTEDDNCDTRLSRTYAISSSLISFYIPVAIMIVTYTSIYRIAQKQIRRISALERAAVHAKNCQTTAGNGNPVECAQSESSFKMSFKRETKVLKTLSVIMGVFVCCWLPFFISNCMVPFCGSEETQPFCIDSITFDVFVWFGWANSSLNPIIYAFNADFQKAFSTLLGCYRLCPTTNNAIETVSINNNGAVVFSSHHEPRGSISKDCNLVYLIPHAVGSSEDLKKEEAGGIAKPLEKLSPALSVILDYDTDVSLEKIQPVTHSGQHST", "experiment": "binding to dopamine D1 receptor in homogenates from rat striatum", "protocol": "The compounds of the invention are useful because of their pharmacological activity. In particular, the compounds of the invention are active in assays predictive for antipsychotic effect. Thus the compounds of formula I were tested for their binding to dopamine D1 receptor in homogenates from rat striatum using the method described (Life Science vol. 37, p. 1971 (1985) P. Andersen et al.) and the result appears from Table I. IC50 is the affinity of tested compounds for the dopamine D1 receptor."}
{"smiles": "CN1CCc2c(ccc3ccoc23)C(c2cccc3ccoc23)C1", "note": "(racemic) [Example 1, 6-(Benzofuran-7-yl)-8-methyl-7,8,9,10-tetrahydro-6H-furo 2,3-g! 3!benzazepine]", "values": [{"measurement": "IC50", "result": 0.012, "unit": "µM"}]}
